Test results from patent publication EP2102204B1, “NEW AMINOPYRROLO[1,2- A]INDOLE ET AMINOPYRIDAZINO[1,6-A]INDOLE DERIVATIVES, METHOD FOR PREPARING THE SAME AND PHARMACEUTICAL COMPOSITIONS CONTAINING THE SAME” (Les Laboratoires Servier, priority 2007, dated 2008).
Like-named read-outs stand apart in the source and are kept apart here.

What was measured:
[1] = Prediction of metabolic stability on liver microsomes; format: in vitro ADME; conditions: 10^-7 M, 0,33 mg prot/ml, NADPH, 0-60 minutes
Procedure: La prédiction de stabilité métabolique est testée par incubation des dérivés à la concentration de 10^-7 M en présence de microsomes hépatiques de souris, rat ou d'homme (0,33 mg prot/ml). Après addition de NADPH (nicotinamide adénine dinucléotide phosphate, forme réduite), des prélèvements sont réalisés à 0, 5, 15, 30 et 60 minutes. La réaction enzymatique est arrêtée avec le méthanol (VN). La protéine est précipitée par centrifugation et le surnageant analysé par LC-MS-MS. La bonne stabilité métabolique de ces dérivés permet d'envisager un traitement per os. TABLEAU III

[2] = tested on: protéine tyrosine hydroxylase (TH); assay: Induction of tyrosine hydroxylase in the locus coeruleus of mice (immunodetection and image analysis of brain sections); format: in vivo, souris Balb/C; conditions: i.p. 20 mg/kg, single injection, 3 days after, % par rapport à la valeur moyenne du groupe témoin; for quantité de TH au niveau du LC, coupe 1: coupe 1 du LC (sens antérieur vers postérieur); for quantité de TH au niveau du LC, coupe 2: coupe 2 du LC (sens antérieur vers postérieur); for quantité de TH au niveau du LC, coupe 3: coupe 3 du LC (sens antérieur vers postérieur); for quantité de TH au niveau du LC, coupe 4: coupe 4 du LC (sens antérieur vers postérieur); for quantité de TH au niveau du LC, coupe 5: coupe 5 du LC (sens antérieur vers postérieur); for quantité de TH au niveau du LC, coupe 6: coupe 6 du LC (sens antérieur vers postérieur); for quantité de TH au niveau du LC, coupe 7: coupe 7 du LC (sens antérieur vers postérieur); for quantité de TH au niveau du LC, coupe 8: coupe 8 du LC (sens antérieur vers postérieur)
From the text: Il est recherché, parmi les dérivés, ceux qui sont capables d'induire une augmentation de la protéine tyrosine hydroxylase (TH) dans le cerveau de la souris Balb/C, au niveau du locus coeruleus (LC).
Les animaux utilisés sont des souris mâles de la lignée pure Balb/C (Charles River Laboratories), âgées de 7 à 8 semaines au moment du traitement.
Les souris reçoivent une injection unique par voie intrapéritonéale du composé à tester, dissous dans une solution d'HCl 0,04 M (contrôle correspondant : HCl […]) si le composé est suffisamment soluble, ou dans l'huile d'olive 90 % / DMSO 10 % (contrôle correspondant : huile d'olive 90 % / DMSO 10 %) pour les composés insolubles en milieu aqueux.
Trois jours après l'injection de chaque molécule, tous les animaux sont sacrifiés par décapitation. Les cerveaux extraits sont ensuite congelés dans de l'azote liquide et conservés à -80° C.
Des coupes coronales de 8 microns d'épaisseur sont pratiquées le long de l'axe postéro-antérieur du LC et fixées. Les coupes sont transférées sur membranes Immobilon-P. La TH est mesurée par immunodétection et analyse d'image.

[3] = tested on: cellules endothéliales confluentes de capillaires bovins; assay: Prediction of blood-brain barrier passage (permeability across endothelial cell layer on filter); format: in vitro ADME; parameters: key: élevé; intermédiaire; faible; conditions: 20 µM; LC-MS-MS in lower compartment after 10, 20, 30, 40 et 60 minutes; result as class
Procedure: Les substances sont incubées à 20 µM dans le compartiment supérieur d'une double cuve séparé du compartiment inférieur soit par un filtre de polycarbonate seul, soit par le même filtre recouvert de cellules endothéliales confluentes de capillaires bovins. L'évaluation de la cinétique de perméabilité est réalisée par quantification LC-MS-MS de la substance inchangée dans le compartiment inférieur après 10, 20, 30, 40 et 60 minutes. Les dérivés testés présentent un passage généralement élevé de la BHE favorisant la cible neurologique. Les résultats sont rendus sous forme de classes : élevé, intermédiaire, faible. Ainsi, l'exemple 17 présente un passage élevé de la BHE.

récepteurs sigma (σ) = assay: Receptor affinity, displacement of labelled specific ligand (haloperidol); format: binding
From the text: (§1) L'affinité pour les récepteurs est déterminée selon les méthodes habituelles de relation entre le ligand spécifique et le récepteur, qui peut être d'origine animale ou un recombinant humain. Elle a été déterminée par la méthode du déplacement du ligand spécifique marqué par le composé étudié, et exprimée par la constante de dissociation Ki. L'affinité réceptorielle pour 28 récepteurs classiques a ainsi été étudiée. L'étude montre que l'induction de TH observée ne passe pas par une affinité vis-à-vis des récepteurs habituellement touchés par les produits psychotropes, comme les récepteurs adrénergiques alpha (de type α2), 5HT (de type 5HT2A), dopaminergiques (de type D1 et D2). Quelques dérivés montrent une affinité non négligeable pour les récepteurs sigma (σ) (ligand halopéridol) ou muscarinique (M). TABLEAU II

5HT2A = 5HT2A (Homo sapiens, UniProt P28223); assay: Receptor affinity, displacement of labelled specific ligand; format: binding
From the text: as §1

[4] = tested on: récepteurs adrénergiques alpha (de type α2); assay: as above; format: binding; conditions: concentration 10^-5 M
From the text: as §1

D1 = D1 (Homo sapiens, UniProt P21728); assay: as above; format: binding; conditions: concentration 10^-5 M
From the text: as §1

[5] = read-out: % d'inhibition 5HT2A, concentration 10^-5 M

Sequence of 5HT2A (P28223 whole entry, species assumed): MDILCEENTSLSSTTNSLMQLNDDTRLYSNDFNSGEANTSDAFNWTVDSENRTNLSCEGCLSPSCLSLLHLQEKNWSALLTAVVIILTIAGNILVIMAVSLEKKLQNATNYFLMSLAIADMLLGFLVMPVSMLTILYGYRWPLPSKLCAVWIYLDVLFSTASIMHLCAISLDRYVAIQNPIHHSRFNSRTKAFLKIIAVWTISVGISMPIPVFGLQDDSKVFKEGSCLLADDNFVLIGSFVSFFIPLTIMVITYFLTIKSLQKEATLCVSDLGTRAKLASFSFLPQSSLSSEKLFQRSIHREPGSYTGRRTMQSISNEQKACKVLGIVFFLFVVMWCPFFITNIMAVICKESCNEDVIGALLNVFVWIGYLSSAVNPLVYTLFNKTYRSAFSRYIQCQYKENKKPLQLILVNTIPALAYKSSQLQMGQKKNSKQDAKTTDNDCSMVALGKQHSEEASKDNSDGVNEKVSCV
Sequence of D1 (P21728 whole entry): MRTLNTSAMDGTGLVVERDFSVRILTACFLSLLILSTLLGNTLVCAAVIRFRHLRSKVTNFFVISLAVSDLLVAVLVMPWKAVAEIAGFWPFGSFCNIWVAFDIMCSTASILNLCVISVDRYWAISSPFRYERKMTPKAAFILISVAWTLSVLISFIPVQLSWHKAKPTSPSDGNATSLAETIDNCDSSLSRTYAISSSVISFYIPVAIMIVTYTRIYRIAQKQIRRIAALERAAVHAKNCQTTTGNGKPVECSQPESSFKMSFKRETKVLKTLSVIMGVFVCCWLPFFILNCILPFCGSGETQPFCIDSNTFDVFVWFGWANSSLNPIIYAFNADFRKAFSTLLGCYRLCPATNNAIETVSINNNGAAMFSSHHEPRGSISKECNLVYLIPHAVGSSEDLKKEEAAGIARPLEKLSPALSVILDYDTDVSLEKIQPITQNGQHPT

## O=C1NN2c3ccccc3C[C@H]2[C@@H]2NCCC[C@H]12 (racemic) [Exemple 8, (4aSR,11aSR, 11bRS)-1,2,3,4,4a,11,11a,11b-Octahydro-1,6,6a-triazabenzo[a]fluorén-5-one]
[1]; Homme
  % de prédiction de stabilité métabolique sur microsomes hépatiques: 80%
[1]; Rat
  % de prédiction de stabilité métabolique sur microsomes hépatiques: 52%
[1]; Souris
  % de prédiction de stabilité métabolique sur microsomes hépatiques: 86%
[2]
  quantité de TH au niveau du LC, coupe 1: 59%
  quantité de TH au niveau du LC, coupe 2: 61%
  quantité de TH au niveau du LC, coupe 3: 59%
  quantité de TH au niveau du LC, coupe 4: 50%
  quantité de TH au niveau du LC, coupe 5: 33%
  quantité de TH au niveau du LC, coupe 6: 17%
  quantité de TH au niveau du LC, coupe 7: 9%
  quantité de TH au niveau du LC, coupe 8: 5%

## CCCN1CC[C@H]2c3ccccc3N3NC(=O)C[C@@H]1[C@@H]23 (racemic) [Exemple 17, (3aRS,6aSR,10cRS)-4-Propyl 3a,4,5,6,6a,10c-hexahydro-3H-1,4,10b-triazafluoranthén-2-one]
[3]
  passage de la BHE: élevé
[2]
  quantité de TH au niveau du LC, coupe 1: 73%
  quantité de TH au niveau du LC, coupe 2: 72%
  quantité de TH au niveau du LC, coupe 3: 56%
  quantité de TH au niveau du LC, coupe 4: 38%
  quantité de TH au niveau du LC, coupe 5: 34%
  quantité de TH au niveau du LC, coupe 6: 36%
  quantité de TH au niveau du LC, coupe 7: 13%
  quantité de TH au niveau du LC, coupe 8: 3%

## C=CCN1CCC[C@@H]2C(=O)N3c4ccc(OC)cc4C[C@@H]3[C@H]21 (racemic) [Exemple 19, (4aSR,11aRS,11bSR)-1-Allyl-9-méthoxy-1,2,3,4,4a,11,11a,11b-octahydro-pyrido[2',3':3,4]pyrrolo[1,2-a]indol-5-one]
récepteurs sigma (σ); concentration 10^-5 M
  % d'inhibition σ: 36%
récepteurs sigma (σ); concentration 10^-7 M
  % d'inhibition σ: 10%
[2]
  quantité de TH au niveau du LC, coupe 1: 49%
  quantité de TH au niveau du LC, coupe 2: 48%
  quantité de TH au niveau du LC, coupe 3: 55%
  quantité de TH au niveau du LC, coupe 4: 50%
  quantité de TH au niveau du LC, coupe 5: 21%
  quantité de TH au niveau du LC, coupe 6: 15%
  quantité de TH au niveau du LC, coupe 7: 6%
  quantité de TH au niveau du LC, coupe 8: 9%

## CN1CCC[C@@H]2C(=O)N3c4ccc(Cl)cc4C[C@H]3[C@@H]21 (racemic) [Exemple 27, (4aSR,11aSR,11bRS)-9-Chloro-1-méthyl-1,2,3,4,4a,11,11a,11b-octahydropyrido[2',3':3,4]pyrrolo[1,2-a]indol-5-one]
récepteurs sigma (σ); concentration 10^-5 M
  % d'inhibition σ: 10%
[2]
  quantité de TH au niveau du LC, coupe 1: 55%
  quantité de TH au niveau du LC, coupe 2: 67%
  quantité de TH au niveau du LC, coupe 3: 54%
  quantité de TH au niveau du LC, coupe 4: 46%
  quantité de TH au niveau du LC, coupe 5: 26%
  quantité de TH au niveau du LC, coupe 6: 29%
  quantité de TH au niveau du LC, coupe 7: 3%
  quantité de TH au niveau du LC, coupe 8: 5%
5HT2A; [5]
  inhibition at 10 µM: 84%
[4]
  % d'inhibition α2: 10%

## O=C1[C@H]2CCCN[C@@H]2[C@H]2Cc3ccccc3N12 (racemic) [Exemple 47, (4aSR,11aRS,11bSR)-1,2,3,4,4a,11,11a,11b-Octahydropyrido [2',3':3,4]pyrrolo[1,2-a]indol-5-one]
[1]; Homme
  % de prédiction de stabilité métabolique sur microsomes hépatiques: 86%
[1]; Rat
  % de prédiction de stabilité métabolique sur microsomes hépatiques: 85%
[1]; Souris
  % de prédiction de stabilité métabolique sur microsomes hépatiques: 99%

## CN1CCC[C@@H]2C(=O)N3c4ccccc4C[C@H]3[C@@H]21 [Exemple 3, (4aSR, 11aSR, 11bRS)-1-Méthyl 1,2,3,4,4a,11,11a,11b-octahydropyrido[2'3':3,4]pyrrolo[1,2-a]indol-5-one]
[1]; Homme
  % de prédiction de stabilité métabolique sur microsomes hépatiques: 59%
[1]; Rat
  % de prédiction de stabilité métabolique sur microsomes hépatiques: 31%
[1]; Souris
  % de prédiction de stabilité métabolique sur microsomes hépatiques: 61%
[2]
  quantité de TH au niveau du LC, coupe 1: 104%
  quantité de TH au niveau du LC, coupe 2: 97%
  quantité de TH au niveau du LC, coupe 3: 69%
  quantité de TH au niveau du LC, coupe 4: 58%
  quantité de TH au niveau du LC, coupe 5: 49%
  quantité de TH au niveau du LC, coupe 6: 31%
  quantité de TH au niveau du LC, coupe 7: 10%
  quantité de TH au niveau du LC, coupe 8: 8%
5HT2A; concentration 10^-5 M, read-out: % d'inhibition 5HT2A
  inhibition at 10 µM: 84%
D1; read-out: % d'inhibition D1
  inhibition at 10 µM: 39%

## C=CCN1CCC[C@H]2C(=O)N3c4ccccc4C[C@H]3[C@@H]21 [Exemple 44, (4aR,11aS,11bR)-1-allyl-1,2,3,4a,11,11a,11b-octahydropyrido[2':3':3.4]pyrrolo[1,2-a]indol-5-one]
[2]
  quantité de TH au niveau du LC, coupe 1: 83%
  quantité de TH au niveau du LC, coupe 2: 99%
  quantité de TH au niveau du LC, coupe 3: 78%
  quantité de TH au niveau du LC, coupe 4: 58%
  quantité de TH au niveau du LC, coupe 5: 38%
  quantité de TH au niveau du LC, coupe 6: 29%
  quantité de TH au niveau du LC, coupe 7: 18%
  quantité de TH au niveau du LC, coupe 8: 3%

## CN1CCC[C@@H]2C(=O)N3c4ccccc4C[C@H]3[C@@H]21 [Exemple 45, (4aS,11aS,11bR)-1-Méthyl-1,2,3,4,4a,11,11a,11b-octahydropyrido[2',3':3,4]pyrrolo[1,2-a]indol-5-one]
5HT2A; [5]
  inhibition at 10 µM: 92%
5HT2A; read-out: % d'inhibition 5HT2A, concentration 10^-7 M
  inhibition at 0.1 µM: 13%
D1
  % d'inhibition D1: 49%
[4]
  % d'inhibition α2: 23%

## CN1CCC[C@H]2C(=O)N3c4ccccc4C[C@@H]3[C@H]21 [Exemple 52, (4aR,11aR,11bS)-1-méthyl-1,2,3,4,4a,11,11a,11b-octahydropyrido[2'3':3,4]pyrrolo[1,2-a]indol-5-one]
[2]
  quantité de TH au niveau du LC, coupe 1: 69%
  quantité de TH au niveau du LC, coupe 2: 86%
  quantité de TH au niveau du LC, coupe 3: 79%
  quantité de TH au niveau du LC, coupe 4: 77%
  quantité de TH au niveau du LC, coupe 5: 40%
  quantité de TH au niveau du LC, coupe 6: 22%
  quantité de TH au niveau du LC, coupe 7: 12%
  quantité de TH au niveau du LC, coupe 8: 1%
